Consider `O=C(O)c1cc(F)c(Cl)cc1Cl`, for which the melting point is 141 to 144 °C.
With `Brc1cc(Br)c(Br)c(Br)c1Br`, the melting point turned out to be 160 °C.
Compound `N#CC1(c2ccc(Cl)cc2)CC1` gave a melting point of 52 to 56 °C.
As for `COc1ccc2cc(Nc3ccc4c(c3)OCCO4)ccc2c1`, the melting point came out at 102 °C.
The value for `COC(=O)c1csc(C=O)c1` was 115 °C; that for `Sc1ccccc1` was -14.9 °C.
Next, `Brc1ccccc1-c1nnn[nH]1`: 182 to 184 °C.
Take `CC(C)(C)OC(=O)NCCC(=O)O`: the melting point was determined as 75 °C.
In turn, `CCSc1nnc(CCn2c(C)nc3ccccc32)n1-c1ccccc1` came in with a melting point of 110 °C.
The value for `CC(=O)Nc1ccc(C=Cc2ccccc2)c([N+](=O)[O-])c1` was 192 °C; that for `NS(=O)(=O)c1cc2c(cc1Cl)NC(C(Cl)Cl)NS2(=O)=O` (stereo not given) was 270 °C; that for `CC(CCC(=O)O)C1CCC2C3C(O)CC4CC(O)CCC4(C)C3CCC12C` (stereo not given) was 203 °C.
In turn, `OCC1(O)COC(O)(CO)CO1` (stereo not given) yielded a melting point of 79 °C.
Regarding `O=[N+]([O-])c1ccc(NS(=O)(=O)c2ccc(Cl)c(C(F)(F)F)c2)c(Cl)c1`, the melting point worked out at 170 °C.
For the compound `NC(COc1ccc(C2SCCS2)cc1)=NO`, the melting point is 113 to 115 °C.
Turning to `COC(=O)C=Cc1ccc(Cl)cc1`, the melting point was determined as 76 °C.
Next, `Cc1cc2cc(Cl)ccc2[nH]1`: 112 to 118 °C; `O=C(O)C(=O)Cc1c[nH]c2ccccc12`: 215 °C; `COc1ccc(OC)c(N=C=S)c1`: 36 °C.
`c1ccc(O[Si](Oc2ccccc2)(Oc2ccccc2)Oc2ccccc2)cc1` returned a melting point of 49 °C.
Next, `Cc1cnc(CO)c(C)c1[N+](=O)[O-]`: 67 °C.
Next, `CN1CCc2c(c3ccccc3n2Cc2ccccc2)C1`: 95 °C; `CC(C)C[C@@H](N)C(=O)O`: 300 °C.
`COc1ccccc1-c1nnc2n1NC(c1ccccc1)S2` (stereo not given) showed a melting point of 208 °C.
In the case of `CC1(C)OC2C(=O)OC(CBr)C2O1` (stereo not given), the melting point is 85 to 89 °C.
In turn, `Cc1cc(C(=O)O)ccc1Cl` registered a melting point of 216 to 218 °C.
For `COc1cc2c(c3oc(=O)c4c(c13)CCOC4=O)C1C=COC1O2` (stereo not given), the melting point was determined as 245 °C.
The compound `Cc1nn(C)c2ncc(C(N)=O)c(Cl)c12` returned a melting point of 275 °C.
For `CC(C)(C)c1cc(C(C)(C)C)cc(C(C)(C)C)c1`, the melting point is 71 °C.
As to `O=C1CCCO1`, the melting point was -43.3 °C.
Next, `C[Si]1(C)N[Si](C)(C)N[Si](C)(C)N1`: -10 °C; `CCCc1nn(C)c2c(=O)nc(-c3cc(S(=O)(=O)N4CCN(C)CC4)ccc3OCC)[nH]c12`: 190 °C; `CC(C)(C)c1cc(O)c(O)c(C(C)(C)C)c1`: 96 to 99 °C.
Next, `CCCOc1cc(O)cc(OCCC)c1`: 43 to 48 °C; `N#CCc1csc2ccc(Cl)cc12`: 134 °C; `S=C=Nc1ccc(OCc2ccccc2)cc1`: 64 °C.
Next, `NCC(O)C(O)C(O)C(O)CO` (stereo not given): 127 °C.
On to `CCCCCCCCCCC(=O)CCCCC`, for which the melting point turned out to be 37 °C.
On to `C=CSC=C`, for which the melting point amounted to 20 °C.
The value for `O=C1c2cccc(O)c2C(=O)c2cccc(O)c21` was 280 °C.
Compound `CC1=C(C)C(=O)OC1=O` had a melting point of 96 °C.
Compound `COC(=O)c1cc2ccccc2c(OC(=O)c2ccccc2C)c1C(=O)OC` gave a melting point of 138 to 140 °C.
For `Nc1nnc(SCC(=O)Nc2ccc3c(c2)OCO3)s1`, the melting point was 196 to 198 °C.
`C1=NN(c2ccccc2)CC1`: the melting point is 52 °C.
`CCOc1cc2c(cc1OCC)C(=S)NCC2`: the melting point was in the range of 150 to 152 °C.

The record behind these values is a melting point compilation (Tetko et al.).
